Measurements from patent US5225411A, “Disubstituted polymethyleneimines” (priority 1990, dated 1993).

Assays:
line P 388/ADR 10 = assay: Flow cytometry, increase in fluorescence of ADR on the line P 388/ADR 10; format: cell-based, murine; conditions: ADR 50 μM, 5 h
Protocol: (§1) By measuring that fluorescence it is possible to obtain a relative measurement of the intracellular concentration of ADR.
(§2) […] After 5 hours' incubation, the intracellular uptake of adriamycin was evaluated by FCM.
(§3) The analysis of each of the samples was carried out on a total of 10,000 cells at a speed of 1000 cells/sec.
(§4) The results were presented in the form of linear histograms of the intracellular ADR fluorescence.
(§5) Expression of the Results
(§6) For each of the histograms, the channel mean fluorescence was determined by the apparatus information system. For all experiments:
(§7) A negative control (cells without ADR) fixed the autofluorescence threshold.
(§8) A positive control (cells with ADR) determined the MEAN value=MN1.
(§9) The "test" tubes (cells with ADR and with compound) were used to determine, for each of the compounds and at each of the concentrations, the MEAN values=MN2.
(§10) The results are expressed in the form of variations from the mean fluorescence obtained for each of the "test" tubes (MN2) in relation to the mean fluorescence obtained with the […] (MNl) : VAR-MEAN=MN2 -MN1. The parameter expressed is thus the increase in the fluorescence of adriamycin in the presence of the tested compounds.

[1] = system: Chinese Hamster Pulmonary Line DC-3F/AD; assay: Increase in the cytotoxicity of actinomycin D on the Chinese hamster pulmonary line DC-3F/AD; format: cell-based; conditions: 4 days;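 further: DC-3F/AD is an extremely resistant cell line whose resistance factor exceeds 10,000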
Description: The cytotoxic agent used was actinomycin D.
Line DC-3F/AD is an extremely resistant line. Its resistance factor is higher than 10,000.

[2] = system: murine leukaemia P 388/ADR 10; assay: Evaluation of the increase in cytotoxicity of adriamycin on the line P 388/ADR-10 in vitro (reversion factor); format: cell-based; conditions: adriamycin, P 388/ADR-10, 48 h, TOX = toxic
Protocol: In this study, the cytotoxicity of adriamycin was measured in the absence and in the presence of the reversing compound.
The compounds tested for their capacity to reverse MDR are added at the same time as the cytotoxic agent. The cells are then incubated for 48 hours.

line DC-3F/AD = assay: Flow cytometry, increase in fluorescence of ADR on the line DC-3F/AD; format: cell-based, Chinese Hamster; conditions: ADR 50 μM, 5 h
Protocol: as §1, §2, §3, §4, §5, §6, §7, §8, §9, §10

| SMILES | Increase in fluorescence of ADR (VAR-MEAN = MN2 - MN1) (line P 388/ADR 10; compound 2 μM) | Increase in fluorescence of ADR (VAR-MEAN = MN2 - MN1) (line P 388/ADR 10; compound 5 μM) | Increase in fluorescence of ADR (VAR-MEAN = MN2 - MN1) (line P 388/ADR 10; compound 10 μM) | Increase in fluorescence of ADR (VAR-MEAN = MN2 - MN1) (line P 388/ADR 10; compound 20 μM) | Reversion Factor (RF) ([1]; compound 5 μM) | Reversion Factor (RF) ([1]; compound 10 μM) | Reversion Factor (RF) ([1]; compound 20 μM) | Reversion Factor (RF) ([2]; compound 10 μM) | Reversion Factor (RF) ([2]; compound 2.5 μM) | Reversion Factor (RF) ([2]; compound 5 μM) | Increase in fluorescence of ADR (VAR-MEAN = MN2 - MN1) (line DC-3F/AD; compound 2 μM) | Increase in fluorescence of ADR (VAR-MEAN = MN2 - MN1) (line DC-3F/AD; compound 5 μM) | Increase in fluorescence of ADR (VAR-MEAN = MN2 - MN1) (line DC-3F/AD; compound 10 μM) | Increase in fluorescence of ADR (VAR-MEAN = MN2 - MN1) (line DC-3F/AD; compound 20 μM) | Reversion Factor (RF) ([1]; compound 2.5 μM) |
| --- | --- | --- | --- | --- | --- | --- | --- | --- | --- | --- | --- | --- | --- | --- | --- |
| CN(C)CCCN1c2ccccc2Sc2ccc(Cl)cc21 [CHLOROPROMAZINE] | 3.30 | 5.15 | 4.60 | 6.20 | < 13 | < 12 | < 13 |  |  |  |  |  |  |  |  |
| COc1ccc([C@@H]2Sc3ccccc3N(CCN(C)C)C(=O)[C@@H]2OC(C)=O)cc1 [DILTIAZEM] | 3.10 | 6.65 | 13.45 | 23.15 | < 11 | < 10 | < 11 |  |  |  |  |  |  |  |  |
| OCCN(CCO)c1nc(N2CCCCC2)c2nc(N(CCO)CCO)nc(N3CCCCC3)c2n1 [DIPYRIDAMOLE] | 2.35 | 7.55 | 21.75 | 40.00 | < 12 | < 11 | < 12 |  |  |  |  |  |  |  |  |
| Fc1ccc(C(c2ccc(F)cc2)N2CCN(C/C=C/c3ccccc3)CC2)cc1 [FLUNARIZINE] | 7.35 | 10.10 | 19.90 | 41.00 | < 13 | 16 | TOX | 25 |  |  |  |  |  |  |  |
| COC(=O)C1=C(C)NC(C)=C(C(=O)OC)C1c1ccccc1[N+](=O)[O-] [NIFEDIPINE] | 0.00 | 0.80 | 5.95 | 3.40 |  |  |  |  |  |  |  |  |  |  |  |
| c1ccc2c(c1)Nc1ccccc1S2 [PHENOTHIAZINE] | 0.00 | 0.00 | 0.00 | 0.00 | < 12 | < 12 | < 12 |  | 9.4 | 23.1 |  |  |  |  |  |
| O=c1[nH]c2ccccc2n1C1CCN(CCCC(c2ccc(F)cc2)c2ccc(F)cc2)CC1 [PIMOZIDE] | 25.60 | 49.42 | 73.13 | 73.64 | 28 | 78 | TOX |  |  |  | 5.85 | 8.85 | 15.65 | 21.60 | < 10 |
| CC(=O)[C@H]1CC[C@H]2[C@@H]3CCC4=CC(=O)CC[C@]4(C)[C@H]3CC[C@]12C [PROGESTERONE] | 1.85 | 1.00 | 6.85 | 11.80 | < 10 | < 10 | 13 | 2.5 |  | 1.7 |  |  |  |  |  |
| CCN(CC)CCCC(C)Nc1c2ccc(Cl)cc2nc2ccc(OC)cc12 (stereo not shown) [QUINACRINE] | 11.83 | 15.73 | 27.73 | 52.77 | < 13 | < 12 | TOX |  |  |  | 2.00 | 10.5 | 19.1 | 25.8 |  |
| CN1CCN(CCCN2c3ccccc3Sc3ccc(C(F)(F)F)cc32)CC1 [TRIFLUOPERAZINE] | 11.45 | 14.75 | 34.55 | 51.05 | < 12 | 38 | TOX |  |  |  | 0.00 | 0.00 | 4.10 | 13.40 |  |
| COC(=O)[C@@H]1[C@H]2C[C@H]3c4[nH]c5ccccc5c4CCN3C[C@@H]2CC[C@@H]1O [YOHIMBINE] | 2.30 | 0.05 | 4.70 | 3.45 | < 12 | < 12 | < 12 |  |  |  |  |  |  |  |  |
| COc1ccc(CCN(C)CCCC(C#N)(c2ccc(OC)c(OC)c2)C(C)C)cc1OC (stereo not shown) [reference compound] | 9.89 | 21.90 | 39.62 | 56.50 |  |  |  |  |  |  | 2.00 | 2.60 | 7.55 | 11.45 |  |
